# Measured values published in ChEMBL document CHEMBL1909046, “DrugMatrix in vitro pharmacology data”.
# Tests used:
# [1] = molecular target: T1, Amine oxidase [flavin-containing] A (Homo sapiens, UniProt P21397); assay: DRUGMATRIX: Monoamine Oxidase MAO-A enzyme inhibition (substrate: Kynuramine); design: species or system BTI-TN-5B1-4; settings: bti-tn-5b1-4; Not Active = under 50% inhibition at 10 µM
# T1 sequence (P21397 whole entry): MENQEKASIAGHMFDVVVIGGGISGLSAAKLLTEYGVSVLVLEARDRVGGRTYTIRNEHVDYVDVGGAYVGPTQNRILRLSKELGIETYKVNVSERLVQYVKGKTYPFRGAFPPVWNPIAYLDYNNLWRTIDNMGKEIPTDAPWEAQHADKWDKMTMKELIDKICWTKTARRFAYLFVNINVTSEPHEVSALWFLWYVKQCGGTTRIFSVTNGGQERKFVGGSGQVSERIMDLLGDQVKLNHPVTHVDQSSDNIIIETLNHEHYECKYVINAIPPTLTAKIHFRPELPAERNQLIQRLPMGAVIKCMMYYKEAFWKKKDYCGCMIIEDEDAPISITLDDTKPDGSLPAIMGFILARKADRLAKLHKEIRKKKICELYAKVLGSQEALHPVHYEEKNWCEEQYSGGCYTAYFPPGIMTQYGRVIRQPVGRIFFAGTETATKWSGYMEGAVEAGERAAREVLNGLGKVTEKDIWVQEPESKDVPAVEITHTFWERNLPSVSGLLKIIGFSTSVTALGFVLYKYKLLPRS
# Acetylcholinesterase = Acetylcholinesterase (Homo sapiens, UniProt P22303); assay: DRUGMATRIX: Acetylcholinesterase enzyme inhibition (substrate: acetylthiocholine); assay type: cell-based, HEK293; settings: hek293; Not Active = under 50% inhibition at 10 µM
# [2] = molecular target: Beta-1 adrenergic receptor (Homo sapiens, UniProt P08588); assay: DRUGMATRIX: Adrenergic beta1 radioligand binding (ligand: [125I] Cyanopindolol); assay type: cell membranes, CHO-K1, Membrane; settings: Not Active = under 50% inhibition at 10 µM
# [3] = molecular target: T2, Angiotensin-converting enzyme (Oryctolagus cuniculus, UniProt P12822); assay: biochemical; assay type: tissue-based, Lung;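 also: enzymatic inhibition of angiotensin-converting enzyme measured with FAPGG as the substrate; in other assays of this panel Not Active means under 50% inhibition at 10 µM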
# T2 sequence (P12822 whole entry): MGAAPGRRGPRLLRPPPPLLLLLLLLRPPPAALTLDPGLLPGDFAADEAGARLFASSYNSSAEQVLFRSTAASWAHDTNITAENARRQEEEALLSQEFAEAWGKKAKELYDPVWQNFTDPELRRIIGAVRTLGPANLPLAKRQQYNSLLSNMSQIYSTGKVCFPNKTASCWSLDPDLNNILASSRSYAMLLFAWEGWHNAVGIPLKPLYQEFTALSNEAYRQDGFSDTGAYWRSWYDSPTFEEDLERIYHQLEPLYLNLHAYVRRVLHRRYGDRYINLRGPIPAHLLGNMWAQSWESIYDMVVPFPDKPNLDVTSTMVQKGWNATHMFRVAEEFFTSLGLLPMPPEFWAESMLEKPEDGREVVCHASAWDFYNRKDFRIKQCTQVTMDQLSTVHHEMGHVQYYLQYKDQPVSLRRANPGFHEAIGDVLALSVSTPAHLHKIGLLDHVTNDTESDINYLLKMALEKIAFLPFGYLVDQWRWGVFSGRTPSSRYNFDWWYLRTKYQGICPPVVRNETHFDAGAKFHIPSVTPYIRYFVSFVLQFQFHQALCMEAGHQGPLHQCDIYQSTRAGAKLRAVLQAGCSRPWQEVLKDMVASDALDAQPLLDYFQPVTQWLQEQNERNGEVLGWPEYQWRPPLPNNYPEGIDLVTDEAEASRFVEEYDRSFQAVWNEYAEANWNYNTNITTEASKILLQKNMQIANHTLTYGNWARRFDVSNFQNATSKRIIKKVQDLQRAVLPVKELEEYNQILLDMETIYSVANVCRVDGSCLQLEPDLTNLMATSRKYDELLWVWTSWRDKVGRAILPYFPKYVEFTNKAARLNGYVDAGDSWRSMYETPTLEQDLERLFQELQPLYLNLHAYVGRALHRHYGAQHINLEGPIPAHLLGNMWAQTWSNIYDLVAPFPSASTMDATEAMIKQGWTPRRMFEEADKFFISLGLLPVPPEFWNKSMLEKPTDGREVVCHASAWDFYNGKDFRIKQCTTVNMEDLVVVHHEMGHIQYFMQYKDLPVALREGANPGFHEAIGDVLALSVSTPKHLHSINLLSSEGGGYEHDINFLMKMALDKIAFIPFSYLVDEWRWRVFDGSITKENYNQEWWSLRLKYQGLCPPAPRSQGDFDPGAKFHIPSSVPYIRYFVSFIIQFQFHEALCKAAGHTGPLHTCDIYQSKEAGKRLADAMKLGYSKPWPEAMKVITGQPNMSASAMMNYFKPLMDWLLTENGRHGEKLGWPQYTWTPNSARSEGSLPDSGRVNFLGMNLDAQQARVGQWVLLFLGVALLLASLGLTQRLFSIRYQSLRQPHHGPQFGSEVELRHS
# [4] = DRUGMATRIX: Calcium Channel Type L, Dihydropyridine radioligand binding (ligand: [3H] Nitrendipine); assay type: cell membranes, Rattus norvegicus, Wistar, Cerebral cortex, Membrane; settings: Not Active = under 50% inhibition at 10 µM
# Calcitonin receptor = molecular target: T3, Calcitonin receptor (Homo sapiens, UniProt P30988); assay type: cell membranes, Membrane; settings: t47d; also: in other assays of this panel Not Active means under 50% inhibition at 10 µM
# T3 sequence (P30988 whole entry): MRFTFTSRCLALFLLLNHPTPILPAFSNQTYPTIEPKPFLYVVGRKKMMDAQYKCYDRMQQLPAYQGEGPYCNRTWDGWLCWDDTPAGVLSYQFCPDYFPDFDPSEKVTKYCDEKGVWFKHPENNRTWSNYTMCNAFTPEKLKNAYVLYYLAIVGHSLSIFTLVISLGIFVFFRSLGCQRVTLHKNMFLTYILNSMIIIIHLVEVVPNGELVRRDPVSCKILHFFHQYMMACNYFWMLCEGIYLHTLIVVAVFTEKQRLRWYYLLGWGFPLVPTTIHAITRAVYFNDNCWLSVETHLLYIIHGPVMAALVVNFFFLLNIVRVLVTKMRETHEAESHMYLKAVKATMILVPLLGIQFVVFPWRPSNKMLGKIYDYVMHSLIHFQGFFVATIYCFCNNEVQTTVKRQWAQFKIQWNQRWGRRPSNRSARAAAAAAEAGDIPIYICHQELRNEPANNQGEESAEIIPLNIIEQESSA
# Cathepsin G = molecular target: T4, Cathepsin G (Homo sapiens, UniProt P08311); assay: biochemical; assay type: tissue-based, Neutrophil; settings: neutrophil;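 also: inhibition of Cathepsin G enzyme activity, tested on an AMC-conjugated peptide substrate; in other assays of this panel Not Active means under 50% inhibition at 10 µM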
# T4 sequence (P08311 whole entry): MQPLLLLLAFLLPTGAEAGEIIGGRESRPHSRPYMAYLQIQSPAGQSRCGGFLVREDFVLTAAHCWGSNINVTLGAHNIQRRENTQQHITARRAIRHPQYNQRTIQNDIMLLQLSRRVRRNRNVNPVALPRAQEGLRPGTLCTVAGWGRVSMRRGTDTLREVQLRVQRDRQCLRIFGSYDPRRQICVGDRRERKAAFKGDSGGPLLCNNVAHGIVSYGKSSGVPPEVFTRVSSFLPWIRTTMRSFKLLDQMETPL
# Beta-1 adrenergic receptor, sequence (P08588 whole entry): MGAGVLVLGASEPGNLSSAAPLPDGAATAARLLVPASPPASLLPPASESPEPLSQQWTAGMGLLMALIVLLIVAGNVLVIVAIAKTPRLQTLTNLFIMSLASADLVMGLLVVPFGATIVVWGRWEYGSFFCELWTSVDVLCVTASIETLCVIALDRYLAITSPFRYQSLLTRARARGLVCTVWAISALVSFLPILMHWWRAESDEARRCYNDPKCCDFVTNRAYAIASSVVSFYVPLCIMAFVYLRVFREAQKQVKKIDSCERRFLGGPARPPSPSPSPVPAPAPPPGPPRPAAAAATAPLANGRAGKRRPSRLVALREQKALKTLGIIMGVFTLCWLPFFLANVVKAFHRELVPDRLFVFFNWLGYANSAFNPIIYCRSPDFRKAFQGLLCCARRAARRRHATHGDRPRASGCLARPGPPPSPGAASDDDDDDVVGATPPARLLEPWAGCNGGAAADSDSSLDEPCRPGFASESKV
# Acetylcholinesterase, sequence (P22303 whole entry): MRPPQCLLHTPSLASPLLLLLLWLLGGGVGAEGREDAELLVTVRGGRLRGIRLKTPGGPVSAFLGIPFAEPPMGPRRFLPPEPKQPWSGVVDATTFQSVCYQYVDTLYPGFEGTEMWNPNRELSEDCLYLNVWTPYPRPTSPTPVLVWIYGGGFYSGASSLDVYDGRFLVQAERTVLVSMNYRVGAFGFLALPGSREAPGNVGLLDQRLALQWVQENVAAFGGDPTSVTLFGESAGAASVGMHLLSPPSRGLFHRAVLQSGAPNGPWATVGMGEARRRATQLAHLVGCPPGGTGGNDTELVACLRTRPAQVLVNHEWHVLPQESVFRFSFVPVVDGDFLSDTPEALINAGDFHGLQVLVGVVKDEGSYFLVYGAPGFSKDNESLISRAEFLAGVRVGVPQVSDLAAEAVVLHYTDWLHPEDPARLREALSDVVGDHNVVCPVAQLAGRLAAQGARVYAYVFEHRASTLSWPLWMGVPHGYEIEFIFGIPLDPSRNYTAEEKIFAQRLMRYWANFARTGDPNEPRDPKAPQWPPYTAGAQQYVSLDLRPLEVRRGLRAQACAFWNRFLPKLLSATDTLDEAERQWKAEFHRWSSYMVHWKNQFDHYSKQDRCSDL
Molecule,IC50 [1],IC50 (Acetylcholinesterase),IC50 ([2]; cho-k1),IC50 [3],IC50 [4],Ki [4],IC50 (Calcitonin receptor),IC50 (Cathepsin G),IC50 ([2]; read-out: IC50),Ki ([2]; read-out: Ki),Ki [1],Ki (Acetylcholinesterase),Ki ([2]; cho-k1),Ki [3],Ki (Calcitonin receptor),Ki (Cathepsin G)
O=C(OC[C@H]1O[C@@H](OC(=O)c2cc(O)c(O)c(OC(=O)c3cc(O)c(O)c(O)c3)c2)[C@H](OC(=O)c2cc(O)c(O)c(OC(=O)c3cc(O)c(O)c(O)c3)c2)[C@@H](OC(=O)c2cc(O)c(O)c(OC(=O)c3cc(O)c(O)c(O)c3)c2)[C@@H]1OC(=O)c1cc(O)c(O)c(OC(=O)c2cc(O)c(O)c(O)c2)c1)c1cc(O)c(O)c(OC(=O)c2cc(O)c(O)c(O)c2)c1 [TANNIC ACID],Not Active,Not Active,Not Active,Not Active,Not Active,Not Active,Not Active,Not Active,–,–,–,–,–,–,–,–
CC#C[C@]1(O)CC[C@H]2[C@@H]3CCC4=CC(=O)CCC4=C3[C@@H](c3ccc(N(C)C)cc3)C[C@@]21C [MIFEPRISTONE],Not Active,Not Active,Not Active,Not Active,Not Active,Not Active,Not Active,Not Active,–,–,–,–,–,–,–,–
CC(O)C(=O)O (stereo not given) [LACTIC ACID],Not Active,Not Active,Not Active,Not Active,Not Active,Not Active,Not Active,Not Active,–,–,–,–,–,–,–,–
Cc1ccnc(NS(=O)(=O)c2ccc(N)cc2)n1 [SULFAMERAZINE],Not Active,Not Active,Not Active,Not Active,Not Active,Not Active,Not Active,Not Active,–,–,–,–,–,–,–,–
CC(C)(C)NC[C@H](O)COc1cccc2c1CCCC2=O [LEVOBUNOLOL],Not Active,Not Active,–,Not Active,Not Active,Not Active,Not Active,Not Active,6.9 nM,3.99 nM,–,–,–,–,–,–
CCOc1cc(N)c(Cl)cc1C(=O)NCC1CN(Cc2ccc(F)cc2)CCO1 (stereo not given) [MOSAPRIDE],Not Active,Not Active,Not Active,Not Active,Not Active,Not Active,Not Active,Not Active,–,–,–,–,–,–,–,–
CC(=O)O[C@]1(C(C)=O)CC[C@H]2[C@@H]3C[C@H](C)C4=CC(=O)CC[C@]4(C)[C@H]3CC[C@@]21C [MEDROXYPROGESTERONE ACETATE],Not Active,Not Active,Not Active,Not Active,Not Active,Not Active,Not Active,Not Active,–,–,–,–,–,–,–,–
OC[C@@H](O)[C@@H](O)[C@H](O)[C@H](O)CO [MANNITOL],Not Active,Not Active,Not Active,Not Active,Not Active,Not Active,Not Active,Not Active,–,–,–,–,–,–,–,–
CC(Cl)(Cl)Cl [TRICHLOROETHANE],Not Active,Not Active,Not Active,Not Active,Not Active,Not Active,Not Active,Not Active,–,–,–,–,–,–,–,–
LEAD(IV) ACETATE,Not Active,Not Active,Not Active,Not Active,Not Active,Not Active,Not Active,Not Active,–,–,Not Active,Not Active,Not Active,Not Active,Not Active,Not Active
O=C(c1ccccc1)c1ccc2n1CCC2C(=O)O (stereo not given) [KETOROLAC],Not Active,Not Active,Not Active,Not Active,Not Active,Not Active,Not Active,Not Active,–,–,–,–,–,–,–,–
